ChEMBL document CHEMBL1201862, “PubChem BioAssay data set” (2004)
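Results reflect a 48-hour exposure of cells in 96-well plates to compound at five concentrations. GI50 marks 50% less growth.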 Active and inactive are the calls of the source. Rule as the data show it: active = GI50 up to about 1.1 µM and inactive = higher.

Experiments:
Assay in all cases: DTP human tumour cell line panel, 48 h
TK-10 = system: TK-10
A498 = system: A498
NCI-H522 = system: NCI-H522
CCRF-CEM = system: CCRF-CEM
HCC 2998 = system: HCC 2998
EKVX = system: EKVX
SF-295 = system: SF-295
NCI-H226 = system: NCI-H226
SK-MEL-28 = system: SK-MEL-28
HCT-116 = system: HCT-116
UACC-257 = system: UACC-257
RXF 393 = system: RXF 393
ACHN = system: ACHN
HCT-15 = system: HCT-15
SF-539 = system: SF-539
MDA-MB-231 = system: MDA-MB-231
NCI/ADR-RES = system: NCI/ADR-RES
DU-145 = system: DU-145
MDA-N = system: MDA-N

| SMILES | GI50 (TK-10) | GI50 (A498) | GI50 (NCI-H522) | GI50 (CCRF-CEM) | GI50 (HCC 2998) | GI50 (EKVX) | GI50 (SF-295) | GI50 (NCI-H226) | GI50 (SK-MEL-28) | GI50 (HCT-116) | GI50 (UACC-257) | GI50 (RXF 393) | GI50 (ACHN) | GI50 (HCT-15) [µM] | GI50 (SF-539) | GI50 (MDA-MB-231) | GI50 (NCI/ADR-RES) | GI50 (DU-145) | GI50 (MDA-N) |
| --- | --- | --- | --- | --- | --- | --- | --- | --- | --- | --- | --- | --- | --- | --- | --- | --- | --- | --- | --- |
| NS(=O)(=O)c1ccc(NC2=CC(=O)C(=O)c3ccccc32)cc1 | > 100 µM (inactive) | > 100 µM (inactive) | > 100 µM (inactive) | > 100 µM (inactive) | > 100 µM (inactive) | > 100 µM (inactive) | > 100 µM (inactive) | > 100 µM (inactive) | > 100 µM (inactive) | 76.4 µM (inactive) | > 100 µM (inactive) | > 100 µM (inactive) | > 100 µM (inactive) | > 100 | > 100 µM (inactive) |  |  |  |  |
| O=[N+]([O-])c1ccc(/C=N/C23CC4CC(CC(C4)C2)C3)cc1 | > 100 µM (inactive) | > 100 µM (inactive) | > 100 µM (inactive) | 80.4 µM (inactive) | > 100 µM (inactive) | > 100 µM (inactive) | > 100 µM (inactive) | > 100 µM (inactive) | > 100 µM (inactive) | > 100 µM (inactive) | > 100 µM (inactive) | > 100 µM (inactive) | > 100 µM (inactive) | > 100 | > 100 µM (inactive) |  |  |  |  |
| CN(C)/C=C/C(=O)c1cccc(C(=O)/C=C/N(C)C)n1 | > 100 µM (inactive) | > 100 µM (inactive) | > 100 µM (inactive) | > 100 µM (inactive) | > 100 µM (inactive) | > 100 µM (inactive) | > 100 µM (inactive) | > 100 µM (inactive) | > 100 µM (inactive) | > 100 µM (inactive) | > 100 µM (inactive) | > 100 µM (inactive) | > 100 µM (inactive) | > 100 | > 100 µM (inactive) |  |  |  |  |
| O=C1c2c(c3c4ccccc4n(CC4CO4)c3c3[nH]c4ccccc4c23)C(=O)N1Cc1ccccc1 (configuration not stated) | > 100 µM (inactive) | 31.9 µM (inactive) | 25.4 µM (inactive) | > 100 µM (inactive) | > 100 µM (inactive) |  | > 100 µM (inactive) | 48.6 µM (inactive) | > 100 µM (inactive) | > 100 µM (inactive) | > 100 µM (inactive) | > 100 µM (inactive) |  | > 100 | 37.1 µM (inactive) |  |  |  |  |
| N#CCN1C(=O)c2cc([N+](=O)[O-])cc3cc([N+](=O)[O-])cc(c23)C1=O | 27.7 µM (inactive) | 35.6 µM (inactive) |  | 2.77 µM (inactive) | 15 µM (inactive) | 23.6 µM (inactive) | 30.5 µM (inactive) | 21.6 µM (inactive) | 19 µM (inactive) | 7.18 µM (inactive) | 15.1 µM (inactive) | 8.28 µM (inactive) | 13.2 µM (inactive) | 6.71 | 14.6 µM (inactive) |  |  |  |  |
| COC(=O)N1C[C@@]2(C=CC3(CC2)OCCO3)c2ccccc21 | > 100 µM (inactive) | > 100 µM (inactive) |  | 45.2 µM (inactive) | > 100 µM (inactive) | 62.1 µM (inactive) | > 100 µM (inactive) |  | 67.1 µM (inactive) | > 100 µM (inactive) | 71.3 µM (inactive) |  | > 100 µM (inactive) | 57.3 |  | > 100 µM (inactive) | 28.6 µM (inactive) | > 100 µM (inactive) | 51.1 µM (inactive) |
| CN1C(=O)N(c2nc3ccccc3[nH]2)C(C)(C)C1=O |  | > 100 µM (inactive) | > 100 µM (inactive) | > 100 µM (inactive) |  | > 100 µM (inactive) | > 100 µM (inactive) | > 100 µM (inactive) | > 100 µM (inactive) | > 100 µM (inactive) | > 100 µM (inactive) | > 100 µM (inactive) | > 100 µM (inactive) | > 100 | > 100 µM (inactive) |  |  |  |  |
| CCOC(=O)/C(ON)=C(/CC/C(C(=O)OC)=C(\ON)C(=O)OCC)C(=O)OC | > 100 µM (inactive) | > 100 µM (inactive) | > 100 µM (inactive) | > 100 µM (inactive) | > 100 µM (inactive) | > 100 µM (inactive) | > 100 µM (inactive) | > 100 µM (inactive) | > 100 µM (inactive) | > 100 µM (inactive) | > 100 µM (inactive) | > 100 µM (inactive) | > 100 µM (inactive) | > 100 | > 100 µM (inactive) |  |  |  |  |
| CCOC(=O)C1=C(C)N(c2ccc(C)cc2)C2=C(C(=O)N(c3ccccc3)C2c2ccccc2)C1c1ccccc1 (configuration not stated) | > 25 µM (inactive) | > 25 µM (inactive) |  | 20.8 µM (inactive) | 18.4 µM (inactive) | > 25 µM (inactive) | 22.2 µM (inactive) | > 25 µM (inactive) | > 25 µM (inactive) | 17.6 µM (inactive) | > 25 µM (inactive) | 0.558 µM (active) | 16.6 µM (inactive) | > 25 | > 25 µM (inactive) |  |  |  |  |
| CCOC(=O)c1[nH]c(COC(C)=O)c(CCCOC(C)=O)c1CCCOC(C)=O | > 100 µM (inactive) | > 100 µM (inactive) | 23 µM (inactive) | > 100 µM (inactive) | > 100 µM (inactive) | > 100 µM (inactive) | > 100 µM (inactive) | > 100 µM (inactive) | > 100 µM (inactive) | > 100 µM (inactive) | > 100 µM (inactive) | > 100 µM (inactive) | > 100 µM (inactive) | > 100 | > 100 µM (inactive) |  |  |  |  |
| ClC/C=C/COC1CCCCO1 (configuration not stated) | > 100 µM (inactive) | > 100 µM (inactive) | 2.12 µM (inactive) | 36.8 µM (inactive) | > 100 µM (inactive) | > 100 µM (inactive) | > 100 µM (inactive) | > 100 µM (inactive) |  | > 100 µM (inactive) | 45.7 µM (inactive) | > 100 µM (inactive) | 60.5 µM (inactive) | > 100 | > 100 µM (inactive) |  |  |  |  |
| Cc1cc2c(cc1C)[n+]([O-])c(C(=O)C/C(=N/NC(=S)NN)C(=O)Nc1cccc(C(F)(F)F)c1)c[n+]2[O-] | > 100 µM (inactive) | > 100 µM (inactive) | > 100 µM (inactive) | 56.9 µM (inactive) | > 100 µM (inactive) | > 100 µM (inactive) | > 100 µM (inactive) | > 100 µM (inactive) | > 100 µM (inactive) | > 100 µM (inactive) | > 100 µM (inactive) |  | > 100 µM (inactive) | > 100 | > 100 µM (inactive) |  |  |  |  |
| OCc1cc2c(cn1)[nH]c1ccc(NCc3ccccc3)cc12 | 30.6 µM (inactive) | 17.8 µM (inactive) | 15.7 µM (inactive) | 20.7 µM (inactive) | 24.8 µM (inactive) | 37.1 µM (inactive) | 22.3 µM (inactive) | 19.1 µM (inactive) | 16.1 µM (inactive) | 16.4 µM (inactive) | 23.3 µM (inactive) | 20.3 µM (inactive) | 20 µM (inactive) | 27.2 | 30.3 µM (inactive) |  |  |  |  |
| N#CC(C#N)=CSc1ccccc1 | 38 µM (inactive) |  | 11.8 µM (inactive) | 1.52 µM (inactive) |  | 48.2 µM (inactive) | 35 µM (inactive) | 19.5 µM (inactive) | 23.8 µM (inactive) | 23 µM (inactive) | 46.2 µM (inactive) | 17.2 µM (inactive) | 30.5 µM (inactive) | 22.1 | 20 µM (inactive) |  |  |  |  |
| N#CC(C(=O)Nc1ccccc1)C1=C(Cl)C(=O)c2ccccc2C1=O (configuration not stated) | 21.7 µM (inactive) | 47.1 µM (inactive) | 15.5 µM (inactive) | 7.59 µM (inactive) | 18.1 µM (inactive) | 17.5 µM (inactive) | 17.9 µM (inactive) | 17 µM (inactive) | 17.1 µM (inactive) | 14.2 µM (inactive) | 2.05 µM (inactive) | 17.6 µM (inactive) |  | 18.5 | 15.2 µM (inactive) |  |  |  |  |
| COc1ccc(/C=C/c2nnc(S)[nH]2)cc1OC | > 100 µM (inactive) | > 100 µM (inactive) |  | > 100 µM (inactive) | > 100 µM (inactive) |  | > 100 µM (inactive) | > 100 µM (inactive) | > 100 µM (inactive) | > 100 µM (inactive) | > 100 µM (inactive) | > 100 µM (inactive) | > 100 µM (inactive) | > 100 | > 100 µM (inactive) |  |  |  |  |
| O=C1C(Cl)C(c2cc(Br)cc(Br)c2O)N1n1cnc2ccccc2c1=O (configuration not stated) | 46.5 µM (inactive) |  | 19 µM (inactive) | 9.29 µM (inactive) | 30.2 µM (inactive) | 25.1 µM (inactive) | 6.76 µM (inactive) | 21.9 µM (inactive) | 19.6 µM (inactive) | 18.9 µM (inactive) | 18.7 µM (inactive) | 21 µM (inactive) | 28.2 µM (inactive) | 20.3 |  |  |  |  |  |
| Clc1ccccc1C1N2CCCCC2[C@@H]2c3[nH]c4ccccc4c3CCN12 (some centres not stated) | 23.8 µM (inactive) | 13.9 µM (inactive) |  | 19.1 µM (inactive) | 18.6 µM (inactive) | 40.1 µM (inactive) | 25.4 µM (inactive) |  | 18.5 µM (inactive) | 18.5 µM (inactive) | 18.7 µM (inactive) | 22 µM (inactive) | 16.2 µM (inactive) | 16.2 | 15.2 µM (inactive) |  |  |  |  |
| CC1=CC(=O)CC2(C)CC[C@@H]3C[C@]12OC3(C)C (some centres not stated) | > 100 µM (inactive) | > 100 µM (inactive) | > 100 µM (inactive) | > 100 µM (inactive) | > 100 µM (inactive) | > 100 µM (inactive) | > 100 µM (inactive) | > 100 µM (inactive) | > 100 µM (inactive) | > 100 µM (inactive) | > 100 µM (inactive) | > 100 µM (inactive) | > 100 µM (inactive) | > 100 | > 100 µM (inactive) |  |  |  |  |
| N=C1NC(=O)N2CC12 (configuration not stated) [IMEXON] | > 100 µM (inactive) | > 100 µM (inactive) | > 100 µM (inactive) | 50.8 µM (inactive) | > 100 µM (inactive) | > 100 µM (inactive) | > 100 µM (inactive) | > 100 µM (inactive) | > 100 µM (inactive) |  | > 100 µM (inactive) | > 100 µM (inactive) | > 100 µM (inactive) | > 100 | > 100 µM (inactive) |  |  |  |  |
